According to patent US9910031B2, “Compositions and methods for modulating c-Rel-dependent cytokine production” (Synta Pharmaceuticals Corporation, priority 2003, dated 2018):

Key:
human IL-12 p35 promoter = assay: IL-12 p35 promoter/luciferase reporter in transiently transfected RAW264.7 cells; assay type: cell-based, murine; settings: for p35 promoter-driven luciferase expression: RAW264.7, IFN-γ/LPS or IFN-γ/SAC
Protocol: (§1) As a result of the Northern blot findings, we undertook a study of the p35 and p40 promoter activities. We transiently transfected the murine macrophage cell line RAW264.7 with DNA constructs in which the p35 and p40 promoters directed expression of the luciferase reporter gene. The RAW264.7 cell line was obtained from American Type Culture Collection (Manassas, Va.) and was cultured in DMEM (ATCC, Manassas, Va.) supplemented with 10% FCS (ATCC, Manassas, Va.), and 1% penicillin/Streptomycin (Gibco-BRL, New York, N.Y.).
Both p35 and p40 promoter-driven luciferase production in response to stimulation were determined in the presence or absence of Compound 1 and Compound 2. To construct the human IL-12 p35 and p40 promoter/luciferase reporter constructs, we generated p35 (−1.5 kb to +3 bp) and p40 (−1.3 kb to +56 bp) promoter fragments, which contained several sequence motifs of the human IL-12 p35 and p40 genes. The fragments were generated by PCR from genomic DNA obtained from human PBMC using primers as follows: IL-12 p35 1.5 kb-F: 5′-[…]-3′(SEQ ID NO:3) and IL-12 p35 1.5 kb-R: 5′-[…]-3′ (SEQ ID NO:4); IL-12 p40 −1.3 kb-F: 5′-[…]-3′ (SEQ ID NO:5) and IL-12 p40 1.3 kb-R: 5′-[…]-3′ (SEQ ID NO:6). The deletion in the p40 promoter reporter constructs were generated by PCR with primers as follows: IL-12 p40 −250 bp to +56 bp (p40/−250 bp) F: 5′-[…]-3′(SEQ ID NO:7) and IL-12 p40 −250 bp to +56 bp (p401/−250 bp) R: 5′-TGCTCTGGGCAGGACGGAG-3′ (SEQ ID NO:8); IL-12 p40 −150 bp to +56 bp (p40/−150 bp) F: 5′-[…]-3′ (SEQ ID NO:9) and IL-12 p40 −150 bp to +56 bp (p40/−150 bp) R: 5′-TGCTCTGGGCAGGACGGAG-3′(SEQ ID NO:10). […]
Cells were co-transfected with the vector pCMV (BD Biosciences Clontech) in which the constitutively active CMV promoter directs β-galactosidase expression for the monitoring of transfection efficiency. Luciferase and β-galactosidase activity were determined in cell extracts prepared according to the Luciferase assay system (Promega) and Luminescent n-gal Detection system (BD Biosciences Clontech). […]

human IL-12 p40 promoter = assay: IL-12 p40 promoter/luciferase reporter in transiently transfected RAW264.7 cells; assay type: cell-based, murine; settings: for p40 promoter-driven luciferase expression: RAW264.7, IFN-γ/LPS or IFN-γ/SAC
Protocol: as §1
Both p35 and p40 promoter-driven luciferase production in response to stimulation were determined in the presence or absence of Compound 1 and Compound 2. To construct the human IL-12 p35 and p40 promoter/luciferase reporter constructs, we generated p35 (−1.5 kb to +3 bp) and p40 (−1.3 kb to +56 bp) promoter fragments, which contained several sequence motifs of the human IL-12 p35 and p40 genes. The fragments were generated by PCR from genomic DNA obtained from human PBMC using primers as follows: IL-12 p35 1.5 kb-F: 5′-[…]-3′(SEQ ID NO:3) and IL-12 p35 1.5 kb-R: 5′-[…]-3′ (SEQ ID NO:4); IL-12 p40 −1.3 kb-F: 5′-[…]-3′ (SEQ ID NO:5) and IL-12 p40 1.3 kb-R: 5′-[…]-3′ (SEQ ID NO:6). The deletion in the p40 promoter reporter constructs were generated by PCR with primers as follows: IL-12 p40 −250 bp to +56 bp (p40/−250 bp) F: 5′-[…]-3′(SEQ ID NO:7) and IL-12 p40 −250 bp to +56 bp (p401/−250 bp) R: 5′-TGCTCTGGGCAGGACGGAG-3′ (SEQ ID NO:8); IL-12 p40 −150 bp to +56 bp (p40/−150 bp) F: 5′-[…]-3′ (SEQ ID NO:9) and IL-12 p40 −150 bp to +56 bp (p40/−150 bp) R: 5′-TGCTCTGGGCAGGACGGAG-3′(SEQ ID NO:10). The resulting PCR products were ligated upstream of the luciferase gene in pGL3-Basic vector (Promega). All constructs were verified by DNA sequencing.
Transfection was accomplished using SuperFect Transfection Reagent (Qiagen) by the described protocol. Total amount of transfect DNA was kept constant by including the respective control plasmids without insertions.
Cells were co-transfected with the vector pCMV (BD Biosciences Clontech) in which the constitutively active CMV promoter directs β-galactosidase expression for the monitoring of transfection efficiency. Luciferase and β-galactosidase activity were determined in cell extracts prepared according to the Luciferase assay system (Promega) and Luminescent n-gal Detection system (BD Biosciences Clontech). Luciferase activity was then normalized using the β-galactosidase value. […] ELISA was performed by the following method. Human IL-12 p70 (heterodimer) was assayed using ELI-PAIR kit from Cell Sciences (Norwood, Mass.), according to the manufacturer's instructions. Human IL-12 p40 was assayed using ELISA kit from Cell Sciences (Norwood, Mass.) according to the manufacturer's instructions.
We then set out to analyze the IL-12 transcriptional promoter elements that played a role in this effect. We performed deletion analyses using the p40 promoter. This promoter, rather than the p35 promoter, was chosen because the transcriptional elements are better defined in the p40 promoter. To identify the IL-12 inhibitor responsive elements involved in the p40 gene transcription activation, three different promoters were constructed and transiently transfected into RAW264.7 cells.
To assess the role of individual p40 promoter transcription elements in more detail, mutations within many of these elements have been generated. […]

NFκB = assay: Gel-shift assay of NFκB binding to the IL-12 p40 promoter site, THP-1 nuclear extracts; assay type: cell-based, human; settings: IFN-γ-primed, SAC-stimulated THP-1; 1 μM Compound 1 or 10 mM ASA
Protocol: Nuclear extracts were prepared from IFN-γ-primed THP-1 cells that had been treated with or without SAC and incubated in the presence or absence of 1 μM Compound 1 or 10 mM ASA. Isolation of nuclear extracts was accomplished by first suspending THP-1 cells in 20 volumes of buffer A containing 10 mM KCl, 10 mM HEPES (pH 7.9), 1 mM MgCl2, 1 mM dithiothreitol (DTT), 0.1% Nonidet p40 (NP-40), and 0.5 mM phenylmethylsulfonyl fluoride (PMSF) and then homogenizing and centrifuging at 10,000 rpm at 4° C. for 5 min. Nuclear pellets were then suspended in buffer C containing 400 mM NaCl, 20 mM HEPES pH 7.9), 15 mM MgCl2, 0.2 mM EDTA, 1 mM DTT, 25% glycerol, 1 mM PMSF, and 10 μg of leupeptin, 20 μg of pepstatin, and 10 μg of antipain per ml, incubated for 30 min at 4° C., and centrifuge at 14,000 rpm for […]. The supernatants were dialyzed against buffer D containing 100 mM NaCl, 20 mM HEPES (pH 7.9), 20% glycerol, 1 mM PMSF, and 1 mM DTT.
The extracts obtained from this process were used in gel-shift assays using oligonucleotides containing the NFκB target sequence corresponding to the region −121 to −102 from the transcription initiation site of IL-12 p40 or a mutated NFκB binding site. […] This interaction was specific as it was competed away by an excess of unlabeled probe, but not by a mutated oligonucleotide in which two base-pairs were substituted. […]

IκBβ = assay: Inducible degradation of IκBβ, Western blot and FACS analysis; assay type: cell-based, human; settings: THP-1 and RAW267.4 cells, IFN-γ/LPS or IFN-γ/SAC, 500 nM, 30 min and 2 hrs
Protocol: IκB degradation is one of the steps in the signaling pathway of NFκB dependent genes. The activity of Compound 2 in inducible degradation of IκBα □ and IκBβ was investigated in THP-1 cells using Western blot and FACS analysis. […] Similar results were observed from the Compound 2 pre-treatment samples in which Compound 2 was added […] before stimulation.

SMILES	p35 promoter-driven luciferase expression (human IL-12 p35 promoter)	p40 promoter-driven luciferase expression (human IL-12 p40 promoter)	IL-12 p40 promoter-driven luciferase activity, deletion construct (human IL-12 p40 promoter; RAW264.7, IFN-γ/LPS, promoter containing Ets-2, PU-1, NF-κB and API elements)	NFκB binding to p40 promoter probe (gel shift) (NFκB)	p35 promoter-driven luciferase expression, comparison between compounds (human IL-12 p35 promoter; RAW264.7, stimulated by IFN-γ/LPS, Compound 2 compared with Compound 1)	amount of IκBβ in the cytoplasm, treated vs untreated (IκBβ)	effect of ICSBP over-expression on inhibition of p40 expression (human IL-12 p40 promoter; co-transfection of ICSBP with IL-12 promoter-Luc reporter)	inhibition of expression in NFκB-element mutant p40 promoter construct (human IL-12 p40 promoter; site-directed mutant of the NFκB element, IFN-γ/LPS)
C(=NNc1nc(OCCc2ccccn2)nc(N2CCOCC2)n1)c1c[nH]c2ccccc12 [Compound 1, N-(1H-indol-3-ylmethylene)-N′-[4-morpholin-4-yl-6-(2-pyridin-2-yl-ethoxy)-[1,3,5]triazin-2-yl]-hydrazine]	suppressed	suppressed	significantly suppressed	did not show any influence				
Cc1cccc(C=NNc2cc(N3CCOCC3)nc(OCCc3ccccn3)n2)c1 [Compound 2, N-(3-methyl-benzylidene)-N′-[6-morpholin-4-yl-2-(2-pyridin-2-yl-ethoxy)-pyrimidin-4-yl]-hydrazine]	suppressed	suppressed			inhibited more effectively	no significant difference	decreased the inhibition	reduced
